Experimental data: patent publication US20190300882A1, “METHODS OF TREATING NEUROBLASTOMA AND REAGENTS THEREFOR” (GARVAN INSTITUTE OF MEDICAL RESEARCH, priority 2016, published 2019)

Experiments:
[1] = test system: KELLY cells; test: Primary miRNA mimic screen in combination with low dose IC30 of vincristine or doxorubicin, cell viability; type: cell-based; conditions: for Primary screen Viability (% of control) Kelly DXR: miRNA mimic 25 nM + low dose IC30 doxorubicin; for Primary screen Viability (% of control) Kelly VCR: miRNA mimic 25 nM + low dose IC30 vincristine; for Primary screen Viability (% of control) Kelly Vehicle: miRNA mimic 25 nM + vehicle
Protocol: To systematically identify miRNAs that affect viability and survival of neuroblstoma cells in combination with chemotherapy, a further functional miRNA screen was performed using the 1200 miRNAs from the miRIDIAN miRNA mimic Library (version 16.0; Dharmacon) in combination with low dose IC30 of vincristine or doxorubicin in the two neuroblastoma cancer cell lines. In doing so, the inventors identified miRNAs which result in a lethal phenotype to neuroblastoma cells when administered in combination with low dose IC30 chemotherapy (hereinafter referred to as ‘synthetic lethal’ miRNAs). […] After 24 hours, media was changed using a BioTek 406. […] Luminescence measurements were taken on the Synergy H4 high-throughput multimode microplate reader as described in Example 1. All screens were performed in duplicates.

[2] = test system: KELLY cells; test: Secondary validation screen of synthetic lethal miRNAs with low dose IC30 chemotherapy, cell viability; type: cell-based; conditions: for Secondary screen Viability (% of control) Kelly DXR: miRNA mimic + low dose IC30 doxorubicin; for Secondary screen Viability (% of control) Kelly VCR: miRNA mimic + low dose IC30 vincristine; for Secondary screen Viability (% of control) Kelly Vehicle: miRNA mimic + vehicle; for synthetic lethality with chemotherapy: in both Kelly and SKNDZ MYCN-amplified cells, secondary screen
Protocol: (§1) KELLY cells were grown in 10% FCS/RPMI as described in Example 1 and reverse transfected in 384-well plate format with 25 nM of a miRNA from the Dharmacon microRNA mimic Library (version 16.0) using liquid-handling robot Calliper Sciclone ALH3000 according to the conditions described in Table 3. After 24 hours, media was changed using a BioTek 406. Media was again changed after 48 hours and 96 hours using a BioTek 406, and at each of those time points low dose IC30 of vincristine or doxorubicin was added to the culture. 144 hours post-transfection, cell viability was determined using CellTiter-Glo luminescent assay (Promega) at 1:2 dilution. Luminescence measurements were taken on the Synergy H4 high-throughput multimode microplate reader as described in Example 1. All screens were performed in duplicates. The experimental design and timeline for this screen are illustrated in FIGS. 5 and 6, respectively.
(§2) The secondary validation screens were performed in accordance with the genome-wide screens described in Example 1 and Example 2, respectively, with the exception that an additional MYCN-amplified neuroblastoma cell line (SK-N-DZ) was added to each screen.
(§3) Furthermore, five additional non-active miRNAs discovered to have no measureable effect across all treatment groups of the genome-wide screen (‘non-lethal’ miRNAs) were included as negative controls.

[3] = test system: SK-N-DZ MYCN-amplified neuroblastoma cell line; test: Secondary validation screen of synthetic lethal miRNAs with low dose IC30 chemotherapy, additional cell line; type: cell-based; conditions: for Additional cell line Viability (% of control) SKNDZ DXR: miRNA mimic + low dose IC30 doxorubicin; for Additional cell line Viability (% of control) SKNDZ VCR: miRNA mimic + low dose IC30 vincristine; for Additional cell line Viability (% of control) SKNDZ Vehicle: miRNA mimic + vehicle
Protocol: as §1, §2, §3

[4] = test system: IMR-90 cells; test: Cell toxicity screen of synthetic lethal miRNAs in non-cancer cells; conditions: for cell viability in non-cancer cells, DXR (% of control): IMR-90, miRNA + low dose IC30 doxorubicin; for cell viability in non-cancer cells, VCR (% of control): IMR-90, miRNA + low dose IC30 vincristine; for cell viability in non-cancer cells, Media (% of control): IMR-90, miRNA alone (media); for activity in IMR90 cells: even when administered in combination with a chemotherapeutic agent
Protocol: The cell toxicity screens were performed in IMR-90 cells (normal human fibroblast cells, ATCC).

Substance	Primary screen Viability (% of control) Kelly DXR [1]	Primary screen Viability (% of control) Kelly VCR [1]	Primary screen Viability (% of control) Kelly Vehicle [1]	Secondary screen Viability (% of control) Kelly DXR [2]	Secondary screen Viability (% of control) Kelly VCR [2]	Secondary screen Viability (% of control) Kelly Vehicle [2]	Additional cell line Viability (% of control) SKNDZ DXR [3]	Additional cell line Viability (% of control) SKNDZ VCR [3]	Additional cell line Viability (% of control) SKNDZ Vehicle [3]	synthetic lethality with chemotherapy [2]	cell viability in non-cancer cells, DXR (% of control) [4]	cell viability in non-cancer cells, VCR (% of control) [4]	cell viability in non-cancer cells, Media (% of control) [4]	activity in IMR90 cells [4]
hsa-miR-3924 (AUAUGUAUAUGUGACUGCUACU; chemistry not given here; listed as Homo sapiens)	35 % of control	40 % of control	72 % of control	46 % of control	57 % of control	75 % of control	41 % of control	81 % of control	85 % of control	–	–	–	–	–
hsa-miR-3151 (GGUGGGGCAAUGGGAUCAGGU; chemistry not given here; listed as Homo sapiens)	40 % of control	52 % of control	102 % of control	65 % of control	47 % of control	102 % of control	71 % of control	72 % of control	87 % of control	–	–	–	–	–
hsa-miR-380-3p (UAUGUAAUAUGGUCCACAUCUU; chemistry not given here; listed as Homo sapiens)	20 % of control	63 % of control	94 % of control	38 % of control	76 % of control	90 % of control	30 % of control	80 % of control	100 % of control	substantial synthetic lethality	96 % of control	117 % of control	99 % of control	minimal activity
hsa-miR-515-3p (guide GAGUGCCUUCUUUUGGAGCGUU; chemistry not given here; listed as Homo sapiens)	38 % of control	56 % of control	84 % of control	42 % of control	73 % of control	82 % of control	24 % of control	70 % of control	85 % of control	substantial synthetic lethality	50 % of control	51 % of control	59 % of control	–
hsa-miR-100-5p (AACCCGUAGAUCCGAACUUGUG; chemistry not given here; listed as Homo sapiens)	34 % of control	48 % of control	68 % of control	43 % of control	43 % of control	69 % of control	48 % of control	69 % of control	98 % of control	–	–	–	–	–
hsa-miR-34a-5p (UGGCAGUGUCUUAGCUGGUUGU; chemistry not given here; listed as Homo sapiens)	70 % of control	36 % of control	72 % of control	98 % of control	35 % of control	96 % of control	74 % of control	57 % of control	92 % of control	substantial synthetic lethality	53 % of control	63 % of control	46 % of control	–
hsa-miR-99b-5p (guide CACCCGUAGAACCGACCUUGCG; chemistry not given here; listed as Homo sapiens)	28 % of control	49 % of control	65 % of control	29 % of control	44 % of control	67 % of control	36 % of control	61 % of control	93 % of control	substantial synthetic lethality	72 % of control	75 % of control	87 % of control	minimal activity
hsa-miR-449a (guide UGGCAGUGUAUUGUUAGCUGGU; chemistry not given here; listed as Homo sapiens)	62 % of control	22 % of control	72 % of control	83 % of control	35 % of control	75 % of control	49 % of control	44 % of control	71 % of control	–	–	–	–	–
hsa-miR-3646 (AAAAUGAAAUGAGCCCAGCCCA; chemistry not given here; listed as Homo sapiens)	34 % of control	55 % of control	74 % of control	45 % of control	72 % of control	70 % of control	52 % of control	110 % of control	101 % of control	–	–	–	–	–
hsa-miR-34c-5p (AGGCAGUGUAGUUAGCUGAUUGC; chemistry not given here; listed as Homo sapiens)	74 % of control	36 % of control	72 % of control	80 % of control	18 % of control	68 % of control	34 % of control	31 % of control	53 % of control	–	–	–	–	–
hsa-miR-3181 (AUCGGGCCCUCGGCGCCGG; chemistry not given here; listed as Homo sapiens)	34 % of control	57 % of control	94 % of control	61 % of control	96 % of control	108 % of control	38 % of control	83 % of control	91 % of control	–	–	–	–	–
